Measurements reported in patent US20240384268A1, “Oligonucleotides” (Hudson Institute of Medical Research, priority 2021, published 2024).
“Also recorded” adds a separate entry of the source. In the oligonucleotide strings, read from the 5' end, every base follows the letter of its sugar. An asterisk marks phosphorothioate; unmarked linkages are phosphodiester. Other units and linkages are bracketed, terminal groups are in braces. A string of capitals states the bases alone. d = 2'-deoxy (DNA); m = 2'-O-methyl

Assays:
[1] = target: T1, Recombinant full-length human cGAS (Homo sapiens, UniProt Q8N884); test: cGAS in vitro assay and cGAMP ELISA; assay type: biochemical; settings: 2.3 μM ISD70, 40 min; for cGAMP production driven by ISD70 (in words): 0.5 μM oligonucleotide
T1 construct: Recombinant full-length human cGAS (Cayman, #22810); purchased Cayman #22810
Description: 0.8 μg of Recombinant full-length human cGAS (Cayman, #22810) was used per single reaction in a 200 μl volume with 80 mM Tris-HCl (pH 7.5), 200 mM NaCl, 20 μM ZnCl2, 20 mM MgCl2, 0.25 mM GTP (Thermofisher #R0441) and 0.25 mM ATP (Thermofisher #R0461), with 20 μg of ISD70 (freshly annealed at 1 μg/l in PBS), and 2 μl C2-Mut1/A151 diluted in TE buffer (to get 0.5, 2 or 10 μM ODN concentration in 200 l). After 40 min at 37° C., 2.5 mM EDTA was added to each tube to stop the enzymatic reaction and the samples were either snap frozen and stored at −80° C. or directly processed for cGAMP ELISA. cGAMP levels were measured with the DetectX Direct 2′,3′-Cyclic GAMP Enzyme Immunoassay Kit (Arbor Assays), according to the manufacturer's protocol. Briefly, 50 μL of in vitro reaction were added per well of the kit microplate with 50 μL Assay buffer, 25 μL conjugate, and 25 μL Antibody per well, prior to a minimum of 2 h incubation. The standards were prepared with serial-dilution in Assay buffer. Quantification of cGAMP levels was performed on a Fluostar OPTIMA (BMG LABTECH) plate-reader at 450 nm.

cGAS = cGAS (Mus musculus, UniProt Q8C6L5); test: IFN-driven gene expression in Trex1-mutant primary BMDMs, RT-qPCR; settings: 50 nM ASO transfected 20 h
TLR7 = target: T2, TLR7 (Mus musculus, UniProt P58681); test: B-406-AS ssRNA-induced TNFα in primary BMDMs; settings: WT primary BMDMs; 100 nM ASO 1 h; 250 nM B-406-AS RNA overnight; vs dC20 co-treatment
T2 sequence (P58681 27-1050): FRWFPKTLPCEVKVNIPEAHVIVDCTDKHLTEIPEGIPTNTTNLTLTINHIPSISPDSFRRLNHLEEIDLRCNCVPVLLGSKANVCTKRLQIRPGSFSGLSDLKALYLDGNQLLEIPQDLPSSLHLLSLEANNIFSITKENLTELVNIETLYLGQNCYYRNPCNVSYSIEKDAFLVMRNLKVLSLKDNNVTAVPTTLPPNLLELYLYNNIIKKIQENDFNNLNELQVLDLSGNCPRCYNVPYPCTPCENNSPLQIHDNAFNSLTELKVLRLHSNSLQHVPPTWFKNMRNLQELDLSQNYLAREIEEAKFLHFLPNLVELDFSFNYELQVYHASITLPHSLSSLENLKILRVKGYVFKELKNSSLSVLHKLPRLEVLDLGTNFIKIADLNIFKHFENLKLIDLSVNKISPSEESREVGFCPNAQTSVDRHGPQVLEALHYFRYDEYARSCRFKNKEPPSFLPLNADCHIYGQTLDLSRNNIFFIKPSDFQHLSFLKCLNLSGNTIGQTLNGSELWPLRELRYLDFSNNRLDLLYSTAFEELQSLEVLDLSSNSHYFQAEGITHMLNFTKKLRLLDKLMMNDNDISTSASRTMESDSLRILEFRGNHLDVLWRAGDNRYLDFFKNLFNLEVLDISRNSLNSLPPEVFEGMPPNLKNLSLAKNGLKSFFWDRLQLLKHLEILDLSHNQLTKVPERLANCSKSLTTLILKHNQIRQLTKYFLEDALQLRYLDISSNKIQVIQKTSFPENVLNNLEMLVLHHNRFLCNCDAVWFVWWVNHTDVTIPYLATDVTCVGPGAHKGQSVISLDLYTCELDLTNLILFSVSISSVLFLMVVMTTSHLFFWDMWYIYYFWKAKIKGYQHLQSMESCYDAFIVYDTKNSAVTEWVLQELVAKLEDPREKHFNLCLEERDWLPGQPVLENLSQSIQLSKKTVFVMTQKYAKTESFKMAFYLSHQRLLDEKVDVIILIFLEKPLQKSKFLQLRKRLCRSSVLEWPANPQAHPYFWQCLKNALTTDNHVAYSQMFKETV

[2] = tested on: primary fibroblast-like synoviocytes (FLS) and bone marrow-derived MSCs; test: Senescence β-galactosidase staining of primary FLS and MSCs; settings: naked ASO 1 to 5 μM for one to two weeks; listed as C2-Mutl

T1 sequence (Q8N884 whole entry): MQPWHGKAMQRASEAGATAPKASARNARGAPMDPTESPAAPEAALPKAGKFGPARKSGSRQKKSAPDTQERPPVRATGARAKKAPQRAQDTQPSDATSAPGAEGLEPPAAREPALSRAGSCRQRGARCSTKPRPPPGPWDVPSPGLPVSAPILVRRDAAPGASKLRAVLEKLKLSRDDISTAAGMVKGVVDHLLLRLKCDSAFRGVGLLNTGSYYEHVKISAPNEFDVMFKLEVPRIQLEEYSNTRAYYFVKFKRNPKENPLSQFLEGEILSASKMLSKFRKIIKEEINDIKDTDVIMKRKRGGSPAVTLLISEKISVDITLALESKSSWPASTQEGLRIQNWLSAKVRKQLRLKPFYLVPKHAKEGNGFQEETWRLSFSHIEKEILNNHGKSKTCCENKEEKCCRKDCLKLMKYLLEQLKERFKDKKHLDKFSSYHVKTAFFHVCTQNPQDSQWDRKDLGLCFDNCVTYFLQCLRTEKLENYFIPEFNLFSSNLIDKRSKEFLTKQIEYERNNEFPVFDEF
cGAS, sequence (Q8C6L5 whole entry): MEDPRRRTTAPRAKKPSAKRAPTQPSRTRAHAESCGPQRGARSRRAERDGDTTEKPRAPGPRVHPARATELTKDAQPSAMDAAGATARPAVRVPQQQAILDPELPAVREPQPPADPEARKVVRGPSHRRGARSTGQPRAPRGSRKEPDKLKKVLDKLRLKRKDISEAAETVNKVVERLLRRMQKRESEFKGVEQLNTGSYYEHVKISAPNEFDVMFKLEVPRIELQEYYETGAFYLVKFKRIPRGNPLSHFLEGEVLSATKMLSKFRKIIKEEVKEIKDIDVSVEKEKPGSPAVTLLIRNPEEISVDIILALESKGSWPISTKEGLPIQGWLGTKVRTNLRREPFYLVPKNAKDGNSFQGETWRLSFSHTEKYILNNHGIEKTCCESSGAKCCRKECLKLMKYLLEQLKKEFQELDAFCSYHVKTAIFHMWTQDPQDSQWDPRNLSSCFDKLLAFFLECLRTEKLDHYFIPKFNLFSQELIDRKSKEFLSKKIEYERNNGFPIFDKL

T*T*A* G*G*G* T*T*A* G*G*G* T*T*A* G*G*G* T*T*A* G*G*G [A151, reference compound]
cGAMP production driven by ISD70 (in words) [1]: similarly reduced cGAMP production
basal expression of ISGs (Rsad2, Ifit1) in Trex1-mutant BMDMs (in words) (cGAS): failed to inhibit these ISGs

mG*mC*mG*mG*mU*A*T*C*C*A*T*G*T*C*C*mC*mA*mG*mG*mC (mG*mC*mG*mG*mU*dA*dT*dC*dC*dA*dT*dG*dT*dC*dC*mC*mA*mG*mG*mC; antisense) [C2-Mut1]
cGAMP production driven by ISD70 (in words) [1]: similarly reduced cGAMP production
inhibitory activity on cGAMP production relative to A151 ([1]; 2 μM oligonucleotide): about 2 fold
TNFα production induced by ssRNA sensing (in words) (TLR7): significantly reduced TNFα production
senescence-associated β-galactosidase (SAB) positive cells (in words) [2]: senescence was strongly reduced; also recorded: more potent inhibitor of SAB than A151
basal expression of ISGs (Rsad2, Ifit1) in Trex1-mutant BMDMs (in words) (cGAS): significantly decreased the basal expression of two ISGs

mG*mG*mU*A*T*C*C*C*C*C*C*C*C*C*C*C*C*C*C*C (GGUATCCCCCCCCCCCCCCC; antisense; sugars from the 5' end m3 d17, all phosphorothioate, methylation of C not given here) [[C2]Mut1-dC]
TNFα production induced by ssRNA sensing (in words) (TLR7): significantly reduced TNFα production
